Assay results published in patent US5807535A, “Metal complexes of hydroxyaryl containing aminocarboxylic acid chelating agents” (Australian Nuclear Science & Technology Organisation, priority 1992, dated 1998).
Where two headings read alike, the source gives them in different places.

Experiment: Biodistribution of 99mTc complexes in rats
Assay type: in vivo, Australian Albino Wistar Rats
Conditions: rat, rats; for tissue uptake at 0.5 min: 30 sec; for tissue uptake at 0.05 h: 3 min
Procedure: A typical method of radiolabelling of the chelator was achieved by dissolving the chelator in a basic solution of saline. The pH was then adjusted to approx. 6 with HCl. Excess stannous chloride was added to the resultant solution followed by one equivalent volume of sodium ^99m TcO4 (10-50 mCi/ml). Final concentration of the chelator was approx. 1 mg/ml. The efficacy of labelling was determined by ITLC-SG. For each product only one main radiochemical species was observed. Each complex was diluted to 15 μCi/100 μl with saline. […] (See FIGS. 1A and 1B).
Selected data from biodistribution results of technetium-99m complexes of No. 1, No. 2 and No 4 in the liver, kidney and blood at 3 minutes is tabulated below.

[1] = blood, read-out: biodistribution blood
[2] = bone, read-out: biodistribution bone
[3] = brain, read-out: biodistribution brain
[4] = eyes, read-out: biodistribution eyes
[5] = heart, read-out: biodistribution heart
[6] = kidneys, read-out: biodistribution kidneys
[7] = liver, read-out: biodistribution liver
[8] = lungs, read-out: biodistribution lungs
[9] = muscle, read-out: biodistribution muscle
[10] = pancreas, read-out: biodistribution pancreas
[11] = skin, read-out: biodistribution skin
[12] = spleen, read-out: biodistribution spleen
[13] = tail, read-out: biodistribution tail
[14] = thymus, read-out: biodistribution thymus
[15] = thyroid, read-out: biodistribution thyroid

O=C(O)CN(CCN(CC(=O)O)CC(=O)Nc1cc([N+](=O)[O-])ccc1O)CC(=O)Nc1cc([N+](=O)[O-])ccc1O [Compound 3]
tissue uptake at 0.5 min [1]: 2.1 %ID/g | tissue uptake at 1 min [1]: 1.83 %ID/g | tissue uptake at 0.05 h [1]: 1.37 %ID/g | tissue uptake at 5 min [1]: 1.17 %ID/g | tissue uptake at 10 min [1]: 0.86 %ID/g | tissue uptake at 0.5 min [2]: 0.3 %ID/g | tissue uptake at 1 min [2]: 0.29 %ID/g | tissue uptake at 0.05 h [2]: 0.3 %ID/g | tissue uptake at 5 min [2]: 0.29 %ID/g | tissue uptake at 10 min [2]: 0.22 %ID/g | tissue uptake at 0.5 min [3]: 0.18 %ID/g | tissue uptake at 1 min [3]: 0.14 %ID/g | tissue uptake at 0.05 h [3]: 0.09 %ID/g | tissue uptake at 5 min [3]: 0.08 %ID/g | tissue uptake at 10 min [3]: 0.05 %ID/g | tissue uptake at 0.5 min [4]: 0.2 %ID/g | tissue uptake at 1 min [4]: 0.23 %ID/g | tissue uptake at 0.05 h [4]: 0.23 %ID/g | tissue uptake at 5 min [4]: 0.17 %ID/g | tissue uptake at 10 min [4]: 0.18 %ID/g | tissue uptake at 0.5 min [5]: 0.78 %ID/g | tissue uptake at 1 min [5]: 0.65 %ID/g | tissue uptake at 0.05 h [5]: 0.55 %ID/g | tissue uptake at 5 min [5]: 0.45 %ID/g | tissue uptake at 10 min [5]: 0.34 %ID/g | tissue uptake at 0.5 min [6]: 3.92 %ID/g | tissue uptake at 1 min [6]: 4.63 %ID/g | tissue uptake at 0.05 h [6]: 4.27 %ID/g | tissue uptake at 5 min [6]: 3 %ID/g | tissue uptake at 10 min [6]: 2.1 %ID/g | tissue uptake at 0.5 min [7]: 1.43 %ID/g | tissue uptake at 1 min [7]: 1.61 %ID/g | tissue uptake at 0.05 h [7]: 1.61 %ID/g | tissue uptake at 5 min [7]: 1.24 %ID/g | tissue uptake at 10 min [7]: 0.92 %ID/g | tissue uptake at 0.5 min [8]: 1.24 %ID/g | tissue uptake at 1 min [8]: 1.04 %ID/g | tissue uptake at 0.05 h [8]: 0.87 %ID/g | tissue uptake at 5 min [8]: 0.72 %ID/g | tissue uptake at 10 min [8]: 0.57 %ID/g | tissue uptake at 0.5 min [9]: 0.26 %ID/g | tissue uptake at 1 min [9]: 0.24 %ID/g | tissue uptake at 0.05 h [9]: 0.23 %ID/g | tissue uptake at 5 min [9]: 0.21 %ID/g | tissue uptake at 10 min [9]: 0.22 %ID/g | tissue uptake at 0.5 min [10]: 0.47 %ID/g | tissue uptake at 1 min [10]: 0.41 %ID/g | tissue uptake at 0.05 h [10]: 0.38 %ID/g | tissue uptake at 5 min [10]: 0.42 %ID/g | tissue uptake at 10 min [10]: 0.21 %ID/g | tissue uptake at 0.5 min [11]: 0.49 %ID/g | tissue uptake at 1 min [11]: 0.43 %ID/g | tissue uptake at 0.05 h [11]: 0.58 %ID/g | tissue uptake at 5 min [11]: 0.64 %ID/g | tissue uptake at 10 min [11]: 0.63 %ID/g | tissue uptake at 0.5 min [12]: 0.49 %ID/g | tissue uptake at 1 min [12]: 0.42 %ID/g | tissue uptake at 0.05 h [12]: 0.29 %ID/g | tissue uptake at 5 min [12]: 0.23 %ID/g | tissue uptake at 10 min [12]: 0.17 %ID/g | tissue uptake at 0.5 min [13]: 0.85 %ID/g | tissue uptake at 1 min [13]: 2.43 %ID/g | tissue uptake at 0.05 h [13]: 0.63 %ID/g | tissue uptake at 5 min [13]: 0.84 %ID/g | tissue uptake at 10 min [13]: 0.84 %ID/g | tissue uptake at 0.5 min [14]: 0.38 %ID/g | tissue uptake at 1 min [14]: 0.34 %ID/g | tissue uptake at 0.05 h [14]: 0.32 %ID/g | tissue uptake at 5 min [14]: 0.25 %ID/g | tissue uptake at 10 min [14]: 0.2 %ID/g | tissue uptake at 0.5 min [15]: 1.11 %ID/g | tissue uptake at 1 min [15]: 1.14 %ID/g | tissue uptake at 0.05 h [15]: 0.92 %ID/g | tissue uptake at 5 min [15]: 0.7 %ID/g | tissue uptake at 10 min [15]: 0.63 %ID/g
